# From patent publication US12590072B2, “Thyromimetics” (Autobahn Therapeutics, Inc., priority 2020, dated 2026)
# What was measured:
# [1] = biological target: T1, TRα (TR-receptor hybrid with yeast Gal4 DBD) (Homo sapiens, UniProt P10827); test: Thyroid-hormone reporter-gene assay, TRα; assay type: cell-based; conditions: HEK293-derived reporter cells, firefly luciferase, 24 hr incubation
# T1 construct: expressed in transfected cells; host or cells: HEK293
# T1 sequence (P10827 1-410 isoform P10827-2): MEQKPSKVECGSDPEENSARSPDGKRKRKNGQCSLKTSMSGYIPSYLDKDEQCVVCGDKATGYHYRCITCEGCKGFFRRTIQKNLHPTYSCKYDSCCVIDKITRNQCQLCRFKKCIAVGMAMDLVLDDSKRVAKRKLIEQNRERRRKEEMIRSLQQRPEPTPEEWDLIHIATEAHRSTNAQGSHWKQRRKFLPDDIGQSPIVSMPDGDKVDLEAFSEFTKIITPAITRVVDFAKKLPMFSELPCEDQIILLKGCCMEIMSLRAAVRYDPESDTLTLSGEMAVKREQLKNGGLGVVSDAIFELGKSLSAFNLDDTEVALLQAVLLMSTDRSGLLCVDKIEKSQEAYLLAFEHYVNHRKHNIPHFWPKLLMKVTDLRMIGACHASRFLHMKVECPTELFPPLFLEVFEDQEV
# Procedure: (§1) Compounds were tested for thyroid-hormone receptor activity using TR reporter-gene assays. Reporter cells used in the assays express a TR-receptor hybrid (either TRα or TRβ) in which the native N-terminal DNA binding domain (DBD) has been replaced with that of the yeast Gal4 DBD. The reporter gene, firefly luciferase, is functionally linked to the Gal4 upstream activation sequence (UAS). Both cell lines were derived from human embryonic kidney (HEK293). • Step 1: A suspension of reporter cells was prepared in cell recovery medium containing 10% charcoal-stripped FBS, and dispensed into assay plates. […] These intermediate stocks were subsequently diluted directly into compound screening medium containing 10% charcoal-stripped FBS to generate “2×-concentration” treatment media (containing 0.2, 0.4 or 0.8% DMSO). • Step 3: At the end of the pre-incubation period, culture media were discarded from the assay plates, and all wells received 100 μl of compound screening medium. 100 μl of each of the previously prepared “2×-concentration” treatment media were dispensed into duplicate assay wells, thereby achieving the desired final treatment concentrations. The final concentration of DMSO in all assay wells was 0.1, 0.2 or 0.4%. Assay plates were incubated for 24 hr in a cell culture incubator (37° C./5% CO2/85% humidity). • Step 4: At the 24 h assay endpoint, treatment media were discarded and 100 μl/well of luciferase detection reagent was added. Relative luminometer units (RLUs) were quantified from each assay well.
# [2] = biological target: T2, TRβ (TR-receptor hybrid with yeast Gal4 DBD) (Homo sapiens, UniProt P10828); test: Thyroid-hormone reporter-gene assay, TRβ; assay type: cell-based; conditions: for EC50: HEK293-derived reporter cells, firefly luciferase, 24 hr incubation; for T3-SI, selectivity index EC50 (TRα)/EC50 (TRβ): calculated from the reporter-gene EC50 values
# T2 construct: expressed in transfected cells; host or cells: HEK293
# T2 sequence (P10828 217-461 limits assumed): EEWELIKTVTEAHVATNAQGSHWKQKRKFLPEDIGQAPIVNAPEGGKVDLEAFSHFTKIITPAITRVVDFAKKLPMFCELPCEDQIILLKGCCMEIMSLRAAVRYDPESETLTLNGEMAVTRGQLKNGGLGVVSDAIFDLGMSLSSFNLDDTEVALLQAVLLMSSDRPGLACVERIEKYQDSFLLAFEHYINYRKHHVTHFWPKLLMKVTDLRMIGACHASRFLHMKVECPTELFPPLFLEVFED
# Procedure: as §1
Structure (SMILES),EC50 [1] [nM],EC50 [2] [nM],"T3-SI, selectivity index EC50 (TRα)/EC50 (TRβ) [2]"
"N#Cc1nn(-c2cc(Cl)c(Cc3ccc(O)c(-c4cccc(OC(F)F)c4)c3)c(Cl)c2)c(=O)nc1O [Compound 3, 2-(3,5-dichloro-4-((3′-(difluoromethoxy)-6-hydroxy-[1,1′-biphenyl]-3-yl)methyl)phenyl)-5-hydroxy-3-oxo-2,3-dihydro-1,2,4-triazine-6-carbonitrile]",> 1000,100 to 1000,+++ (T3-SI>30×)
"N#Cc1nn(-c2cc(Cl)c(Cc3ccc(O)c(Cc4ccc(F)cc4)c3)c(Cl)c2)c(=O)nc1O [Compound 4, 2-(3,5-dichloro-4-(3-(4-fluorobenzyl)-4-hydroxybenzyl)phenyl)-5-hydroxy-3-oxo-2,3-dihydro-1,2,4-triazine-6-carbonitrile]",> 1000,100 to 1000,++ (3×<T3-SI≤30×)
"CC(C)c1c(O)ccc(Cc2c(Cl)cc(-c3cc(F)c(O)c(F)c3)cc2Cl)c1F [Compound 7, 3′,5′-dichloro-3,5-difluoro-4′-(2-fluoro-4-hydroxy-3-isopropylbenzyl)-[1,1′-biphenyl]-4-ol]",> 1000,100 to 1000,++ (3×<T3-SI≤30×)
"CC(C)c1c(O)ccc(Cc2c(Cl)cc(-c3ccc(F)c(O)c3F)cc2Cl)c1F [Compound 8, 3′,5′-dichloro-2,4-difluoro-4′-(2-fluoro-4-hydroxy-3-isopropylbenzyl)-[1,1′-biphenyl]-3-ol]",> 1000,> 1000,
"CC(C)c1cc(Cc2c(Cl)cc(-c3cc(O)no3)cc2Cl)ccc1O [Compound 9, 5-(3,5-dichloro-4-(4-hydroxy-3-isopropylbenzyl)phenyl)isoxazol-3-ol]",100 to 1000,10 to 100,++ (3×<T3-SI≤30×)
"O=c1nc(O)cnn1-c1cc(Cl)c(Cc2ccc(O)c(-c3cccc(OC(F)F)c3)c2)c(Cl)c1 [Compound 10, 2-(3,5-dichloro-4-((3′-(difluoromethoxy)-6-hydroxy-[1,1′-biphenyl]-3-yl)methyl)phenyl)-5-hydroxy-1,2,4-triazin-3(2H)-one]",< 10,< 10,++ (3×<T3-SI≤30×)

# Other lines, results leading:
EC50 [1] [nM],EC50 [2] [nM],"T3-SI, selectivity index EC50 (TRα)/EC50 (TRβ) [2]",Structure (SMILES)
100 to 1000,10 to 100,+++ (T3-SI>30×),"CC(C)c1cc(Cc2c(Cl)cc(-n3nc(C#N)c(O)nc3=O)cc2Cl)ccc1O [Compound 1, 2-(3,5-dichloro-4-(4-hydroxy-3-isopropylbenzyl)phenyl)-5-hydroxy-3-oxo-2,3-dihydro-1,2,4-triazine-6-carbonitrile]"
10 to 100,10 to 100,++ (3×<T3-SI≤30×),"CC(C)c1c(O)ccc(Cc2c(Cl)cc(-n3nc(C#N)c(O)nc3=O)cc2Cl)c1F [Compound 2, 2-(3,5-dichloro-4-(2-fluoro-4-hydroxy-3-isopropylbenzyl)phenyl)-5-hydroxy-3-oxo-2,3-dihydro-1,2,4-triazine-6-carbonitrile]"
10 to 100,< 10,++ (3×<T3-SI≤30×),"CC(C)c1cc(Cc2c(Cl)cc(-n3nc(C#N)c(O)nc3=O)cc2C(C)C)ccc1O [Compound 5, 2-(3-chloro-4-(4-hydroxy-3-isopropylbenzyl)-5-isopropylphenyl)-5-hydroxy-3-oxo-2,3-dihydro-1,2,4-triazine-6-carbonitrile]"
100 to 1000,100 to 1000,++ (3×<T3-SI≤30×),"CC(C)c1cc(Cc2c(Cl)cc(-n3nc(C#N)c(O)nc3=O)c(F)c2Cl)ccc1O [Compound 6, 2-(3,5-dichloro-2-fluoro-4-(4-hydroxy-3-isopropylbenzyl)phenyl)-5-hydroxy-3-oxo-2,3-dihydro-1,2,4-triazine-6-carbonitrile]"
